Data published in publication PMC11035592, “Intranasal oxytocin suppresses seizure-like behaviors in a mouse model of NGLY1 deficiency” (Communications Biology, 2024).

Legend:
[1] = system: patients with NGLY1 deficiency; conditions: cited from earlier work
From the text: For epileptic seizures in patients with NGLY1 deficiency, some approved drugs, including levetiracetam, valproate, lamotrigine, and clobazam, have been tested; however, their efficacies were limited.

[2] = Oxytocin levels in plasma, brain and spinal cord 5 min after intranasal oxytocin (enzyme immunoassay); format: in vivo, mouse; design: Oxytocin level, Thalamus, Mean / Oxytocin level, Hypothalamus, Mean / Oxytocin level, Cortex, Mean / Oxytocin level, Spinal cord, Mean / Oxytocin level, Striatum, Mean / Oxytocin level, Hippocampus, Mean: unit not given here; conditions: for Oxytocin level, Cortex, Mean / Oxytocin level, Hippocampus, Mean / Oxytocin level, Hypothalamus, Mean / Oxytocin level, Plasma, Mean / Oxytocin level, Spinal cord, Mean / Oxytocin level, Striatum, Mean / Oxytocin level, Thalamus, Mean: mean of n = 3; for Oxytocin level, Cortex, % of Control / Oxytocin level, Hippocampus, % of Control / Oxytocin level, Hypothalamus, % of Control / Oxytocin level, Spinal cord, % of Control / Oxytocin level, Striatum, % of Control / Oxytocin level, Thalamus, % of Control: mean, figure corresponds to % of the plasma 0 mg/kg mean; for Oxytocin level, Plasma, % of Control: mean as % of 0 mg/kg plasma mean
Experimental: Delivery of intranasal oxytocin to the central nervous system was confirmed using 17 to 18-week-old female Ngly1^−/− mice.
Fig. 5 Oxytocin levels in the plasma, brain, and spinal cord of Ngly1^−/− mice after intranasal administration of oxytocin. Oxytocin (10, 100 mg/kg) or saline was intranasally administered to female Ngly1^−/− mice (17 or 18-week-old) under anesthesia with 2.5% isoflurane (a). b Plasma, c hippocampus, d striatum, e cerebral cortex, f spinal cord, g thalamus, and h hypothalamus were collected 5 min after the single administration. Oxytocin levels were measured using enzyme immunoassay. Data represent mean + standard deviation and individual values (N = 3). […]
Oxytocin peptide (CAS number 50-56-6) was purchased from AA Blocks (San Diego, CA, USA) and dissolved in saline at a maximum concentration of 200 mg/mL. Female Ngly1^−/− mice were anesthetized with 2.5% isoflurane and intranasally administered with oxytocin using a manual pipette at a volume of 0.5 ml/kg. Oxytocin solutions were prepared in Protein LoBind Tubes (Eppendorf, Hamburg, Germany) just before the intranasal administration.

[3] = system: generally healthy older men (55–95 years old); conditions: chronic intranasal administration, twice daily for four weeks; cited from earlier work
From the text: (§1) The safety of single or chronic intranasal oxytocin administration has been investigated in several clinical studies. […] Based on these clinical studies, oxytocin has the potential to be administered to patients with NG ...

[4] = system: school-age children (8–12 years old); conditions: 90 min and 24 h after a single intranasal administration; cited from earlier work
From the text: as §1

[5] = female Ngly1−/− mice, 17 to 18-week-old, 10 or 100 mg/kg single intranasal, 5 min after administration, enzyme immunoassay, N = 3, vs saline

Nc1nnc(-c2cccc(Cl)c2Cl)c(N)n1 [lamotrigine]
efficacy for epileptic seizures [1]: limited

CC[C@H](C)[C@@H]1NC(=O)[C@H](Cc2ccc(O)cc2)NC(=O)[C@@H](N)CSSC[C@@H](C(=O)N2CCC[C@H]2C(=O)N[C@@H](CC(C)C)C(=O)NCC(N)=O)NC(=O)[C@H](CC(N)=O)NC(=O)[C@H](CCC(N)=O)NC1=O [oxytocin, Oxytocin]
Oxytocin level, Cortex, Mean ([2]; 10 mg/kg intranasal): 2.20 | Oxytocin level, Cortex, % of Control ([2]; 10 mg/kg intranasal): 0.776% | Oxytocin level, Cortex, Mean ([2]; 100 mg/kg intranasal): 15.07 | Oxytocin level, Cortex, % of Control ([2]; 100 mg/kg intranasal): 5.31% | Oxytocin level, Hippocampus, Mean ([2]; 10 mg/kg intranasal): 8.47 | Oxytocin level, Hippocampus, % of Control ([2]; 10 mg/kg intranasal): 3% | Oxytocin level, Hippocampus, Mean ([2]; 100 mg/kg intranasal): 23.47 | Oxytocin level, Hippocampus, % of Control ([2]; 100 mg/kg intranasal): 8% | Oxytocin level, Hypothalamus, Mean ([2]; 10 mg/kg intranasal): 87.40 | Oxytocin level, Hypothalamus, % of Control ([2]; 10 mg/kg intranasal): 31% | Oxytocin level, Hypothalamus, Mean ([2]; 100 mg/kg intranasal): 132.73 | Oxytocin level, Hypothalamus, % of Control ([2]; 100 mg/kg intranasal): 47% | Oxytocin level, Plasma, % of Control ([2]; 10 mg/kg intranasal): 4479% | Oxytocin level, Plasma, Mean ([2]; 10 mg/kg intranasal): 12705.67 | Oxytocin level, Plasma, % of Control ([2]; 100 mg/kg intranasal): 26235% | Oxytocin level, Plasma, Mean ([2]; 100 mg/kg intranasal): 74420.67 | Oxytocin level, Spinal cord, Mean ([2]; 10 mg/kg intranasal): 2.17 | Oxytocin level, Spinal cord, % of Control ([2]; 10 mg/kg intranasal): 0.764% | Oxytocin level, Spinal cord, Mean ([2]; 100 mg/kg intranasal): 4.10 | Oxytocin level, Spinal cord, % of Control ([2]; 100 mg/kg intranasal): 1.45% | Oxytocin level, Striatum, Mean ([2]; 10 mg/kg intranasal): 2.60 | Oxytocin level, Striatum, % of Control ([2]; 10 mg/kg intranasal): 0.917% | Oxytocin level, Striatum, Mean ([2]; 100 mg/kg intranasal): 24.23 | Oxytocin level, Striatum, % of Control ([2]; 100 mg/kg intranasal): 8.54% | Oxytocin level, Thalamus, Mean ([2]; 10 mg/kg intranasal): 3.40 | Oxytocin level, Thalamus, % of Control ([2]; 10 mg/kg intranasal): 1.2% | Oxytocin level, Thalamus, Mean ([2]; 100 mg/kg intranasal): 42.47 | Oxytocin level, Thalamus, % of Control ([2]; 100 mg/kg intranasal): 15% | increasing trend of oxytocin level in hypothalamus [2, 5]: not observed | oxytocin level in cerebral cortex [2, 5]: increased | oxytocin level in hippocampus [2, 5]: increased | oxytocin level in plasma [2, 5]: increased | oxytocin level in spinal cord [2, 5]: increased | oxytocin level in striatum [2, 5]: increased | oxytocin level in thalamus [2, 5]: increasing trend | tolerability [3]: well-tolerated | side-effects [4]: no side-effect

CCCC(CCC)C(=O)O [valproate]
efficacy for epileptic seizures [1]: limited

CN1C(=O)CC(=O)N(c2ccccc2)c2cc(Cl)ccc21 [clobazam]
efficacy for epileptic seizures [1]: limited

CC[C@@H](C(N)=O)N1CCCC1=O [levetiracetam]
efficacy for epileptic seizures [1]: limited
